Measurements: patent publication US11052127B2, “HSP for use in treatment for imiquimod related side effects” (Alfa Biogene International B.V., priority 2012, dated 2021)
Read-outs that look alike come from different tables or passages of the source.

Experiments:
BALBc mice [1] = test: Cumulative PASI score (erythema, scales, thickness) of imiquimod-treated mice; assay type: in vivo; details: day 7; maximum of 12 points; Group 1, imiquimod only
Method: (§1) The effect of HSP was tested on mice (BALBc mice, male 10-12 weeks old) The mice were divided in 5 groups of eight mice each: […] Group 2: mice were treated for 6 days as group 1. […] Group 3: mice were treated for 6 days as group 2, except for the cream comprising 250 μg/ml HSP (100 μg HSP per dose) Group 4: mice were treated as group 2 except for the carrier cream comprising no Hsp70. (mice were treated for six days, twice a day, once four hours before treatment with imiquimod, once four hours after treatment with imiquimod. Group 5: control group, no cream application. Day 1: initial evaluation for visible signs of psoriasis. […] Animal backs were shaved and photographs were taken. were assessed by the PASI score. On day 7, photographs of all animals (backs) were taken to document progression of the disease. Study groups on ordinal and continuous outcomes were compared using the Kruskal-Wallis test with a […] adjustment for pairwise group comparisons for an overall statistical significance criteria of 0.05 for each outcome.

BALBc mice [2] = test: Visual appearance (scaling) of the backs of the mice, FIG. 1; assay type: in vivo; details: after 6 days of treatment
Method: (§2) Group 1: mice were treated for 6 days on shaved back and right ear with one daily application of imiquimod 5% cream to the skin (3.125 mg daily dose)
(§3) Group 2: mice were treated for 6 days as group 1. In addition the part of the skin to which imiquimod was applied was treated twice daily with the cream comprising 50 μg/ml HSP (20 μg HSP per dose). Each day, the cream comprising HSP70 was applied to the skin in a 1 mm layer, 4 hours before application of the imiquimod, and again 4 hours after treatment with imiquimod.
From left to right: Group 2 (20 μg HSP), Group 3 (100 μg HSP), Group 4 (carrier cream only) and Group 1 (imiquimod only)

BALBc mice [3] = test: Ear pinnae thickness in mice treated with imiquimod cream with or without HSP70 cream; assay type: in vivo; details: Group 1, imiquimod 5% cream only, 3.125 mg daily dose
Method: as §1, with “taken. Thickness of both ear pinnae were measured. Cream application was performed creams. All animals” for “taken.”, “and examined once daily for behavioural changes and adverse effects. Ear pinnae measurements are performed daily. Skin changes” for “by the PASI score. On day 7, photographs of all animals (backs) were taken to document progression of the disease.”

patients = details: cited from earlier work
BALBc mice [4] = test: Histology of back skin samples: average epidermal thickness of the treated skin; assay type: in vivo; details: day 7, Group 1, imiquimod only
Method: as §2, §3
Day 7: The animals were euthanized and skin tissue and blood was processed. Inflammatory markers were measured with Q-PCR (skin samples). Skin samples were histologically examined. […]

CC(C)Cn1cnc2c(N)nc3ccccc3c21 [imiquimod]
cumulative PASI score (BALBc mice [1]): 6.5
scaling of the backs of the mice (BALBc mice [2]): severely scaled
ear thickness (BALBc mice [3]; Day 1): 0.21 mm
ear thickness (BALBc mice [3]; Day 5): 0.28 mm
ear thickness (BALBc mice [3]; Day 6): 0.37 mm
ear thickness (BALBc mice [3]; Day 7): 0.40 mm
remote site skin reaction: edema (patients; in females): 1%
remote site skin reaction: erythema (patients; in females): 3%
remote site skin reaction: ulceration (patients; in females): 2%
remote site skin reaction: edema (patients; in males): 1%
remote site skin reaction: erosion (patients; in males): 2%
remote site skin reaction: erythema (patients; in males): 1%
remote site skin reaction: induration (patients; in males): 1%
remote site skin reaction: scaling/excoriation/flaking (patients; in males): 1%
remote site reactions: bleeding, burning, itching, pain, dryness, scabbing, crusting, redness, hardening of the skin, tenderness, tinea cruris (patients; in vivo): more than 1 % of patients
average epidermal thickness of the treated skin (BALBc mice [4]): 58 μm
